Source: paper PMC11467737, “Osteocalcin binds to a GPRC6A Venus fly trap allosteric site to positively modulate GPRC6A signaling” (FASEB BioAdvances, 2024)
Substitutions are numbered along the chain they refer to. Bridge positions count the residues as written; N and C are the ends. Ends that are not written are not given here.

Experiments:
[1] = target: T1, K352E/H355P hGPRC6A (Homo sapiens, UniProt Q5T6X5, H355P/K352E); test: cAMP accumulation in HEK-293 cells transfected with K352E/H355P hGPRC6A; assay type: cell-based; settings: for cAMP accumulation by Ocn small fragments: K352E/H355P double mutant, fragment at 20 nM, Figure 6C
T1 construct: expressed in transfected cells; host or cells: HEK-293, pcDNA3
T1 sequence (Q5T6X5 19-926 K352E/H355P): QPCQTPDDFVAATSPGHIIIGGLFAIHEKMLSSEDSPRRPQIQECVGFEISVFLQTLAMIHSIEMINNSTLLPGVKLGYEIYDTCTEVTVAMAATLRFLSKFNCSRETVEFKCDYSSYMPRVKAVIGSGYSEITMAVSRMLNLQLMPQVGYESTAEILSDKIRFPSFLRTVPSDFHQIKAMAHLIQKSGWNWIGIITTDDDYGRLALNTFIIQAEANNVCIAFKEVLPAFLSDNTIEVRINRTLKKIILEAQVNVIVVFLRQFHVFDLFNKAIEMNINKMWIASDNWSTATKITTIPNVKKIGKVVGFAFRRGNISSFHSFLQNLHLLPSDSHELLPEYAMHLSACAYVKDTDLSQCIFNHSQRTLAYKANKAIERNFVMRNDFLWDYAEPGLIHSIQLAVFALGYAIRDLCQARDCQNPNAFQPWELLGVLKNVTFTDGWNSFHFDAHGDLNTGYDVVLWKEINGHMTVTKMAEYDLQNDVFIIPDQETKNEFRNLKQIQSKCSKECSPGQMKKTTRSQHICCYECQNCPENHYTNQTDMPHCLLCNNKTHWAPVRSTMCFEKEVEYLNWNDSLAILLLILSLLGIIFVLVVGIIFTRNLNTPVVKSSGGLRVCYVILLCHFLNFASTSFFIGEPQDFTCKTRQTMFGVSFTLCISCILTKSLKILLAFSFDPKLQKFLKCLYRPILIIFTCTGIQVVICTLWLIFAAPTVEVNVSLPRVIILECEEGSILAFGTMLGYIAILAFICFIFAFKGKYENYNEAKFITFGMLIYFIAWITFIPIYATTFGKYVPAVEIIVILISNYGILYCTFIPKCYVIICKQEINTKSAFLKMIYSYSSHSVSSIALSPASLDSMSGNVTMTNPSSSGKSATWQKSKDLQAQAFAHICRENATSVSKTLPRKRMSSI
Protocol: (§1) HEK‐293 transfected with human GPRC6A isoform cDNA plasmids cells (10^5 cells/well)[30] were cultured in 24‐well plates in DMEM supplemented with 10% fetal bovine serum and 1% penicillin/streptomycin (100 U/mL of penicillin and 100 μg/mL of streptomycin) for 48 h followed by 4 h incubation in DMEM/F12 containing 0.1% BSA and 0.5 mM IBMX to achieve quiescence and preventing cAMP degradation. Quiescent cells were treated with vehicle control, various ligands at concentration as indicated for 40 min at 37°C. Then, the reaction was stopped, and the cells lysed with 0.5 mL 0.1 N HCl. cAMP levels were measured by using Cyclic AMP EIA kit (Cayman Chemical; Ann Arbor, MA, USA) following the manufacture's protocol.
In‐vitro mutagenesis by PCR‐mediated recombination QuikChange II XL Site‐Directed Mutagenesis Kit (Agilent) was performed using the cDNA of human GPRC6A cloned in the vector pcDNA3 (Invitrogen) as a template. The primer sets are as follows. K352E.sen: […]; K352E.antisen: […]; H355P.sen: […]; H355P.antisen: […]; K352E/H355P.sen: […]; and K352E/H355P.antisen: […]. All mutants were confirmed by sequencing.

[2] = target: T2, human GPRC6A isoform 1 (Homo sapiens, UniProt Q5T6X5); test: cAMP accumulation in HEK-293 cells transfected with human GPRC6A isoform 1 (wild-type, full length); assay type: cell-based; settings: for cAMP accumulation by synthesized human Ocn fragments: fragments at 20 nM, Figure 3C / S5C
T2 construct: expressed in transfected cells; host or cells: HEK-293, pcDNA3-hGPRC6A
T2 sequence (Q5T6X5 19-926): T1 sequence (Q5T6X5 19-926 K352E/H355P) with E334K, P337H
Protocol: as §1

[3] = HEK-293 with pcDNA3-hGPRC6A, 40 min

Row | Substance | cAMP accumulation by Ocn small fragments [1] | Potency compared to full-length Ocn 1–49, cAMP dose response ([2]; HEK-293 with pcDNA3-hGPRC6A, Figure S5A) | cAMP accumulation by synthesized human Ocn fragments [2, 3] | cAMP accumulation, dose response of full-length Ocn, versus wild-type receptor ([1]; K352E/H355P mutant, Figure 6A) | cAMP accumulation, dose response of full-length Ocn ([2]; WT hGPRC6A, Figure 6A) | Ocn-induced cAMP accumulation, dose response ([2]; isoform 1, Ocn 1.73, 8.65, 17.3, 26.0 nM, 1 mM calcium, 40 min, Figure 2C)
1 | REVCELNPDC (disulfide 4-10 (inferred)) [Ocn 20–29, synthesized human Ocn decapeptide fragment located in the middle of the protein] | no response | greater potency | high activity |  |  | 
2 | RFYGPV [Ocn 44–49, synthesized human Ocn C‐terminal hexapeptide] | partially activate |  | high activity |  |  | 
3 | osteocalcin (YLYQWLGAPVPYPDPLEPRREVCELNPDCDELADHIGFQEAYRRFYGPV; not fully specified; ends and bridges not checked; UniProt P02818 52-100, looked up) [Ocn 1–49, full human Ocn (49 aa) synthesized by BioMatik; methods also describe decarboxylated Ocn purified from bovine tibial bone, reference compound] |  |  |  | significantly decreased | dose‐dependently stimulated | activated GPRC6A isoform 1 in a dose dependent manner
